Laboratory results published in patent US10071042B2, “External dermatological agent for anti-ageing” (Hayashibara Co., Ltd., priority 2014, dated 2018).

How the values were obtained:
matrix metalloprotease-1 = assay: Matrix metalloprotease-1 production of NHDF after IL-1β, ELISA (Experiments 5 and 9); assay type: cell-based, human; conditions: 200 μM, single use; reduction against control
Experimental: Normal human dermal fibroblasts (NHDF), which had been suspended in a Dulbecco's Modified Eagle Medium supplemented with 10% fetal calf serum to give a concentration of 2.5×10^5 cells/mL, were placed in 96-well microplates by 0.1 mL/well and cultured until reaching a confluent state over the bottom of each well. Thereafter, the medium in each well was replaced with a fresh serum-free culture medium and culture for another 24 hours, added with any one of the test substances in Table 6 at each concentration shown in the table, and cultured for additional 24 hours. Then, the resulting cell cultures were added with human IL-1β to give a final concentration of 1 ng/ml, followed by culturing the cells for another 24 hours. After completion of the culture, matrix metalloprotease-1 in the supernatant in each well was detected with an enzyme-linked immuno sorbent assay (ELISA), commercialized by R & D Systems, Inc., MN, USA, developed coloration with tetramethylbenzidine, and measured for absorption at a wavelength of 450 nm. A control system was provided similarly as above except for not adding any test substance, and determined for the activity of matrix metalloprotease-1 similarly as in the above to be regarded as 100%. The production level of matrix metalloprotease-1 for each test substance was comparatively evaluated based on the following equation. Equation: Production level of matrix metalloprotease-1 (relative value (%))=[(Absorbance of a sample with any one of test substances)/(Absorbance of control)]×100
The experiment was repeated three times, and the data were compared to that of control with the Dunnett's multiple comparisons test. The symbol “*” means a level of significance of p<0.01.
Except for adding the test substances listed in Table 12 at respective concentrations shown in the table, experiments were respectively conducted in accordance with the methods in Experiment 5 disclosed in the specification to examine the effect of the combination use with ascorbic acid 2-glucoside used as a skin whitener in cosmetics on the action of anti-wrinkles by analogues of adenosine N1-oxide 5′-phosphate. A control system was provided and similarly treated as above except for not adding any test substance. The reduction rate of the production level of matrix metalloprotease-1 against that of control based on the following equation. Equation: Reduction rate of the production level of matrix metalloprotease−1(%)=100−[(Absorbance of a sample with any one of test substances)/(Absorbance of control)]×100

filaggrin protein = assay: Expression of filaggrin protein, Western blot filaggrin/actin (Experiment 3); assay type: cell-based, human; conditions: 0.5 mM (positive control); control = 100%
Experimental: Then, the expression of filaggrin was induced in such a manner of further culturing the cells for another four days, while replacing the culture medium with an EpiLife medium supplemented with 2 μM, 5 μM, or 10 μM of sodium adenosine N1-oxide 5′-phosphate every three days. […] After four days culture, the resultant cells were washed with Dulbecco's phosphate buffered saline, added with 0.1 mL of an SDS sample buffer (pH 6.8) containing 62.5 mM Tris-HCl, 2% SDS, 10% glycerol, and 50 mM DTT along with a protease inhibitor, and collected with a cell scraper. The collected cells were boiled for 10 min, disrupted ultrasonically, and quantified with “Pierce BCA Protein Assay Kit”, commercialized by ThermoFisher Scientific K. K., Yokohama, Japan. A prescribed amount of the resulting disrupted cells was sampled and subjected to SDS-polyacrylamide gel electrophoresis in an amount of 100 μg/lane, and the resulting gel was transferred to a PVDF membrane. The resulting transferred PVDF membrane was blocked with “Block Ace”, commercialized by DS Pharma Biomedical Co., Ltd., Osaka, Japan, reacted with a 200-fold dilution of “AKH1”, a mouse anti-filaggrin antibody, commercialized by, Santa Cruz Biotechnology Inc., CA, USA, or a 20,000-fold dilution of “MAB1501”, a mouse actin antibody, commercialized by Chemicon International Inc., MA, USA, as a first antibody, and then reacted with a 2,000-fold dilution of “P0447”, an HRP-labeled anti-mouse immunoglobulin, commercialized by Dako Japan, Tokyo, Japan, as a secondary antibody. After the reaction, by using ECL Plus Western Blotting Detection System, commercialized by GE Healthcare Japan, Tokyo, Japan, bands were detected on “Hyperfilm ECL”, a chemiluminescent film commercialized by GE Healthcare Japan, Tokyo, Japan. The detected bands were analyzed and quantified with “Image J”, an image analyzing software. A control system with no addition of any of the test substances was provided and the increasing intensity ratio of a band of filaggrin/actin was regarded as 100%, with which data for the increased percentages of the intensity ratios of bands of filaggrin/actin of the test substances were comparatively evaluated.

[1] = tested on: normal human epidermal keratinocytes; assay: Production level of cornified envelope, absorbance 310 nm (Experiments 1-2 and 7); assay type: cell-based; conditions: single use, increase over control
Experimental: Normal human epidermal keratinocytes were cultured similarly as in Experiment 1-1, except for adding the test substances listed in Table 2 at prescribed concentrations to the cells. The resulting cultured cells were washed once with phosphate buffered saline (PBS), followed by scrapping off the cells adhered to each culture plate by adding 0.5 mL of PBS to each well of the plates. The cell suspensions thus obtained were added with 10% sodium lauryl sulfate solution in a volume of ¼ of each of the suspension volumes, followed by stirring and freezing the resulting mixtures at −80° C. After thawing, the resulting mixtures were centrifuged at 12,000×g for 15 min, followed by collecting the cell precipitates which were then washed once with phosphate buffered saline containing 2% sodium lauryl sulfate. The resulting mixtures were centrifuged at 12,000×g for 15 min, followed by collecting the cells and suspending the collected cells with phosphate buffered saline containing 2% sodium lauryl sulfate and 20 mM dithiothreitol. The resulting cell suspensions were boiled in a boiling water bath for one hour and measured for absorbance at a wavelength of 310 nm to determine the production level of cornified envelope for each test system added with any of the test substances. A control system was provided similarly as above except for not adding any one of the test substances to the system, and determined for absorbance at a wavelength of 310 nm similarly as in the above to be regarded as 100%. The production level of cornified envelope for each test substance was relatively evaluated based on the following equation. Equation: Production level of cornified envelope (Relative value (%))=[(Absorbance of a sample with any one of test substances)/(Absorbance of Control)]×100
(§1) The experiment was repeated three times, and the data was subjected to the Dunnett's multiple comparisons with Control. The symbol “*” means a level of significance of p<0.01.
(§2) Except for adding the test substances listed in Tables 8 and 9 at respective concentrations shown in the tables, experiments were respectively conducted in accordance with the methods in Experiments 1-2 and 1-3 disclosed in the specification to examine the effect of the combination use of epigallocatechin gallate, which is used as an antioxidant for cosmetics, and sodium adenosine N1-oxide 5′-phosphate on the action of accelerating the cornified-envelope production and the action of enhancing the transglutaminase activity of sodium adenosine N1-oxide 5′-phosphate. A control system was provided and similarly treated as above except for not adding any test substance and was determined for both the increase rates of cornified-envelope production level and the transglutaminase activity, based on the following equations. Equation: Increase rate of cornified envelope production level (%)={[(Absorbance of a sample with any one of test substances)/(Absorbance of control)]×100}−100 Equation: Increase rate of transglutaminase (%)={[(Absorbance of a sample with any one of test substances)/(Absorbance of control)]×100}−100

transglutaminase = assay: Transglutaminase activity, fluorescein cadaverine uptake (Experiments 1-3 and 7); assay type: cell-based, human; conditions: single use, increase over control
Experimental: Normal human epidermal keratinocytes were cultured similarly as in Experiment 1-1, except for adding the test substances as listed in Table 3 to respective culture systems. The cultured normal human epidermal keratinocytes were added with 100 μM of fluorescein cadaverine and allowed to stand for four hours. Thereafter, the resulting cells were washed once with phosphate buffered saline and further treated with cold methanol for 10 min for cell fixation. The fixed cells were washed thrice with cold methanol, followed by the addition of phosphate buffered saline. Fluorescein cadaverine taken in the cells via transglutaminase was analyzed with Cell Imaging Station, commercialized by Molecular Probes Life Technology, France, and the analyzed fluorescent intensities were regarded as transglutaminase activities. There was provided a control system similarly as in the above, except for not adding any of the test substances. The transglutaminase activity of each test substance was evaluated as a relative value determined with the following equation using the fluorescent intensity of the control system being regarded as 100%. Equation: Transglutaminase activity (relative value (%))=[(Fluorescent intensity of a sample with any one of test substances)/(Fluorescent intensity of control)]×100
as §1, §2

[2] = tested on: human epidermoid carcinoma cell line A-431; assay: Tight-junction function, lucifer yellow transmittance (Experiments 2 and 8); assay type: cell-based; conditions: 3 mM, single use; reduction against control
Text: A human epidermoid carcinoma cell line A-431 was suspended in a media, supplemented with any of the test substances disclosed in Table 4 and having respective concentrations as indicated in the table, to give a cell concentration of 1×10^5 cells/mL, and each cell suspension was placed in an insert cup for a 12-well culture plate by two milliliters per well, followed by culturing the cells until reaching a confluent state through over the bottom surface of each well. The inner and the outer cup volumes were adjusted to give two milliliters while checking both the liquid levels of the cups were constant, and lucifer yellow as a model for permeating substance, commercialized by Life Technologies Corporation, CA, USA, was added to each inner cup to give a final concentration of 100 μM. Thereafter, the fluorescent intensities of lucifer yellow in the culture media in both the inner and the outer cups were measured, followed by calculating the percentage of the fluorescent intensity of the outer cup against that of the sum of the outer and the inner cups for use as a transmittance of lucifer yellow with the following equation. Equation: Transmittance of lucifer yellow (%)={(Absorbance of a liquid outside of an insert cup)/[(Absorbance of a liquid inside of the insert cup)+(Absorbance of the liquid outside of the insert cup)]}×100
There was provided a control system prepared similarly as above except for not adding any of the test substances, and the transmittance of lucifer yellow was regarded as 100% for evaluating the reduction of transmittance due to the reinforcement of the function of tight junction, based on the following equation. Equation: Relative transmittance (Relative percentage (%)) of lucifer yellow=[(Transmittance of a sample with any one of test substances)/(Transmittance of control)]×100
The experiment was repeated three times, and the data was subjected to the Dunnett's multiple comparisons with control. The symbol “*” means a level of significance of p<0.01.
Except for adding the test substances listed in Table 11 at respective concentrations shown in the table, experiments were respectively conducted in accordance with the methods in Experiment 2 disclosed in the specification to examine the effect of the combination use with ethylenediaminetetraacetate used as a preservative for cosmetics on the action of reinforcing the function of tight junction by sodium adenosine N1-oxide 5′-phosphate. A control system was provided and similarly treated as above except for not adding any test substance. The reduction rate of relative transmittance of lucifer yellow against that of control based on the following equation. Equation: Reduction rate of relative transmittance of lucifer yellow (%)=100−[(Transmittance of a sample with any one of test substances)/(Transmittance of control)]×100

In the case of `O=C1O[C@H]([C@@H](O)CO)C(O)=C1O[C@H]1O[C@H](CO)[C@@H](O)[C@H](O)[C@H]1O` [Ascorbic acid 2-glucoside, reference compound], the “Reduction rate of the production level of matrix metalloprotease-1 activity (%)” value (matrix metalloprotease-1) was 2.1%.

With `[Ca+2].[Cl-].[Cl-]` [CaCl2, calcium chloride, reference compound] the “Relative expression level of filaggrin protein (%)” value (filaggrin protein) was 289%.

For `O=C(O[C@@H]1Cc2c(O)cc(O)cc2O[C@@H]1c1cc(O)c(O)c(O)c1)c1cc(O)c(O)c(O)c1` [Epigallocatechin gallate, reference compound], the “Increase rate of cornified envelope formation level (%)” value ([1]; 1.6 μM) was 28.0%, the “Increase rate of cornified envelope formation level (%)” value ([1]; 3.3 μM) was 37.3% and the “Increase rate of transglutaminase activity (%)” value (transglutaminase; 1.6 μM) was 5.6%. For the same compound, the “Increase rate of transglutaminase activity (%)” value (transglutaminase; 3.3 μM) was 19.0% and the “Increase rate of transglutaminase activity (%)” value (transglutaminase; 6.5 μM) was 6.5%.

For `O=C(O)CN(CCN(CC(=O)O)CC(=O)O)CC(=O)O` [Ethylenediaminetetraacetate, reference compound], the “Reduction rate of relative transmittance of lucifer yellow (%)” value [2] was −24.7%.
